Test system: SARS-CoV-2
Assay type: cell-based
Details: result in words

Substance | inhibition of SARS-CoV-2 proliferation in Vero-76 cells
A25L: SEQ ID NO: 2: 10-nucleotide linker GGAGAATGAC sandwiched between two copies of a 25-mer poly(dA) sequence (DNA AAAAAAAAAAAAAAAAAAAAAAAAAGGAGAATGACAAAAAAAAAAAAAAAAAAAAAAAAA; further chemistry not given here) | markedly inhibited
A25: 5′-GGAGAATGACA(25)-3′, SEQ ID NO: 1: 10-nucleotide linker attached to 5′-end of a 25-mer poly(dA) sequence (DNA GGAGAATGACAAAAAAAAAAAAAAAAAAAAAAAAA; further chemistry not given here) | markedly inhibited
